Assay results as given in patent US20050250677A1, “Glycopeptide antibiotic derivatives” (priority 2002, published 2005).
Where two headings read alike, the source gives them in different places.

How the values were obtained:
[1] = test system: HEL cells
[2] = test system: HSV-2 (G); test: Anti-HSV-2 assay: virus-induced cytopathicity in HEL cell cultures; settings: for EC50: read-out: EC50 HSV-2 (G), HEL cell cultures
[3] = test system: VZV (wild-type strains); test: Anti-VZV assay (wild-type strains): virus-induced cytopathicity in HEL cell cultures; format: cell-based, varicella-zoster virus; settings: for EC50: HEL cell cultures
[4] = test system: HSV-1 (KOS); test: Anti-HSV-1 assay: virus-induced cytopathicity in HEL cell cultures; settings: for EC50: read-out: EC50 HSV-1 (KOS), HEL cell cultures
[5] = test system: HEL cells; settings: read-out: CC50 (HEL)
[6] = test system: CMV; test: Anti-CMV assay: virus-induced cytopathicity in HEL cell cultures; settings: read-out: EC50 CMV AD-169; CMV strain AD-169, HEL cell cultures
[7] = test system: HIV-2(ROD); test: Inhibition of HIV-2 (ROD)-induced cytopathicity (giant cell formation) in CEM cells; format: cell-based; settings: read-out: EC50 HIV-2 (concentration required to inhibit HIV-induced giant cell formation by 50%); HIV-2, CEM cell cultures
Method: (§1) A variety of glycopeptide antibiotic derivatives of vancomycin, eremomycin and teicoplanin including their aglycon derivatives were evaluated for their inhibitory activity against HIV-1 (IIIB) and HIV-2(ROD) in CEM cell cultures.

[8] = test system: human lymphocyte CEM; test: Cytostatic activity assay, CEM cells; format: cell-based; settings: read-out: IC50 CEM (compound concentration required to inhibit tumor cell proliferation by 50%)
[9] = test system: murine leukemia L1210; test: Cytostatic activity assay, L1210 cells; format: cell-based; settings: read-out: IC50 L1210 (compound concentration required to inhibit tumor cell proliferation by 50%)
[10] = test system: human lymphocyte Molt4/clone 8; test: Cytostatic activity assay, Molt4/clone 8 cells; format: cell-based; settings: read-out: IC50 Molt4/C8 (compound concentration required to inhibit tumor cell proliferation by 50%)
[11] = test system: HIV-1 (IIIB); test: Inhibition of HIV-1 (IIIB)-induced cytopathicity (giant cell formation) in CEM cells; format: cell-based
Method: as §1

[12] = test system: HIV; test: Selection of resistant HIV strains in cell culture; format: cell-based; settings: ≧9 weeks of attempts in cell culture
[13] = test system: mutant HIV-1 strain Tyr-181-Cys; test: Anti-HIV-1 activity against mutant HIV-1 strain Tyr-181-Cys in CEM cultures; format: cell-based
[14] = test system: mutant HIV-1 strain Lys-103-Asn; test: Anti-HIV-1 activity against mutant HIV-1 strain Lys-103-Asn in CEM cultures; format: cell-based
[15] = test system: HIV-2 (RF); settings: read-out: EC50 CEM/0 HIV-2 (RF); CEM/0 cells
Method: (§2) Inhibition of HIV-1 (IIIB, HE, HN) and HIV-2(ROD, EHO, RF)-induced cytopathicity in CEM or C8166 or Molt4/C8 cells was measured in microtiter 96-well plates containing ˜3×10^5 CEM cells/ml, infected with 100 CCID50 of HIV per ml and containing appropriate dilutions of the test compounds. After 4 to 5 days of incubation at 37° C. in a CO2-controlled humidified atmosphere, CEM, C8166 or Molt4/C8 giant (syncytium) cell formation was examined microscopically.

[16] = test system: HIV-2 (EHO); settings: read-out: EC50 CEM/0 HIV-2 (EHO); CEM/0 cells
Method: as §2

[17] = test system: FCV; test: Feline corona virus assay in Feline Crandel kidney cells (MTS); format: cell-based; settings: FCV in FCK cells; read-out: EC50 FCV
Method: Feline Crandel kidney cells were seeded in 96-well microtiter plates at 24,000 cells/well. Then, 24 hrs later, an appropriate inoculum of FCV is added together with 5-fold dilutions of the test compounds. After 4 days, a MTS/PMS solution was added to each well. Following a 90 min incubation period at 37° C., the optical density of the wells was read at 498 nm in a microplate reader.

[18] = test system: FCK cells; settings: read-out: CC50 FCK; FCK cells
[19] = test system: HIV-1 (MN); test: Inhibition of HIV-1 (MN)-induced cytopathicity in CEM/0 cells; format: cell-based
[20] = test system: Vero cells; settings: read-out: CC50 Vero
[21] = test system: HIV-1 (HE); test: Inhibition of HIV-1 (HE)-induced cytopathicity in CEM/0 cells; format: cell-based
[22] = test system: mutant HIV-1 strain Tyr-188-His; test: Anti-HIV-1 activity against mutant HIV-1 strain Tyr-188-His in CEM cultures; format: cell-based
Method: as §2

[23] = test system: mutant HIV-1 strain Leu-100-Ile; test: Anti-HIV-1 activity against mutant HIV-1 strain Leu-100-Ile in CEM cultures; format: cell-based
[24] = test system: SARS virus (strain Frankfurt-1); test: microbe, parasite or virus in culture; format: cell-based, human corona (SARS) virus; settings: SARS virus in Vero cells; read-out: EC50 SARS virus
[25] = test system: HIV-1(HE); test: Inhibition of HIV-1 (HE)-induced cytopathicity in MOLT4/C8 cells; format: cell-based
[26] = test system: HIV-1 (IIIB); test: Inhibition of HIV-1 (IIIB)-induced cytopathicity in C8166 cells; format: cell-based
[27] = VZV strain OKA, read-out: EC50 VZV (OKA)
[28] = read-out: EC50 HIV-1 (concentration required to inhibit HIV-induced giant cell formation by 50%), HIV-1, CEM cell cultures
[29] = CEM cultures, wild type in mutant panel, read-out: EC50 HIV-1 IIIB
[30] = CEM/0 cells, read-out: EC50 CEM/0 HIV-1 (IIIB)

SMILES | MTC (HEL) ([1]; anti-VZV table) | EC50 [3, 27] [µM] | CC50 ([5]; HEL cells, anti-VZV table) [µM] | EC50 [7] [µM] | IC50 [8] [µM] | IC50 [9] [µM] | IC50 [10] [µM] | EC50 [11, 28] [µM] | EC50 [14] [µM] | EC50 [15] [µM] | EC50 [16] [µM] | EC50 [19] [µM] | EC50 [21] [µM] | EC50 [11, 29] [µM] | EC50 [11, 30] [µM] | EC50 [25] [µM] | other results
CCCCc1ccc(CNCc2c(O)cc3c(c2O)-c2cc(ccc2O)C2NC(=O)C4NC(=O)C5NC(=O)C(Cc6ccc(c(Cl)c6)Oc6cc4cc(c6O)Oc4ccc(cc4Cl)C(O)C(NC2=O)C(=O)NC3C(=O)O)NC(=O)C(NC(=O)OC(C)(C)C)c2ccc(O)c(c2)Oc2cc(O)cc5c2)cc1 (stereo not drawn) [Compound 146] | ≧5-50 μM | 2.5 | > 50 |  |  |  |  |  |  |  |  |  |  |  |  |  | MTC (HEL) [1]: ≧5-50 μM; MTC (HEL) ([1]; anti-CMV table): ≧5-50 μM; activity against HSV-2 [2]: activity; EC50 [2]: 9.6 µM; activity against HSV-1 [4]: activity; EC50 [4]: 9.6 µM; CC50 ([5]; HEL cell proliferation): > 50 µM; CC50 ([5]; HEL cells, anti-CMV table): > 50 µM; EC50 [6]: > 20 µM
CCCCCCCCCC(=O)N1CCN(C(=O)C2NC(=O)C3NC(=O)C(NC(=O)C4NC(=O)C5NC(=O)C(Cc6ccc(c(Cl)c6)Oc6cc4cc(c6O)Oc4ccc(cc4Cl)C3O)NC(=O)C(N)c3ccc(O)c(c3)Oc3cc(O)cc5c3)c3ccc(O)c(c3)-c3c(O)cc(O)cc32)CC1 (stereo not drawn) [Compound 40] | ≧5-20 μM | 0.29 | > 50 | 4.5 ± 2.1 | 44 ± 0.42 | 38.7 ± 3.4 | 32.3 | 1.5 ± 0.7 |  |  |  |  |  |  |  |  | MTC (HEL) [1]: ≧5-20 μM; EC50 [2]: 9.6 µM; EC50 ([3]; VZV strain YS, read-out: EC50 VZV (YS)): 0.21 µM; EC50 [4]: 9.6 µM; CC50 ([5]; HEL cell proliferation): > 50 µM
CCCCCCCCCCNCc1c(O)cc2c(c1O)-c1cc(ccc1O)C1NC(=O)C3NC(=O)C4NC(=O)C(Cc5ccc(c(Cl)c5)Oc5cc3cc(c5O)Oc3ccc(cc3Cl)C(O)C(NC1=O)C(=O)NC2C(=O)NCCCN(C)C)NC(=O)C(N)c1ccc(O)c(c1)Oc1cc(O)cc4c1 (stereo not drawn) [Compound 15] |  |  |  | 6 ± 3.9 | > 100 | 48 ± 8 | > 100 | 1.4 ± 0.6 |  |  |  |  |  |  |  |  | selection of resistant virus strains [12]: failed
Cc1ccnc2c1NC(=O)c1cccnc1N2C1CC1 [nevirapine, reference compound] |  |  |  |  |  |  |  |  |  |  |  |  |  |  |  |  | selection of resistant virus strains [12]: easily resulted in the emergence
CNC(=O)C1NC(=O)C2NC(=O)C(NC(=O)C3NC(=O)C4NC(=O)C(Cc5ccc(c(Cl)c5)Oc5cc3cc(c5O)Oc3ccc(cc3Cl)C2O)NC(=O)C(N)c2ccc(O)c(c2)Oc2cc(O)cc4c2)c2ccc(O)c(c2)-c2c1cc(O)c(CNC1C3CC4CC(C3)CC1C4)c2O (stereo not drawn) [Compound 51] |  |  |  | 17 ± 3.5 | > 250 | 212 ± 54 | > 250 | 5 ± 1.4 | 12 | 9 ± 4.2 | 13 ± 6.6 | 25 ± 7.1 | 40 | 5 ± 1.4 | 5 ± 1.4 | 25 ± 5 | EC50 [13]: 9.5 ± 2.1 µM; EC50 [17]: 15 µM; CC50 [18]: ≥ 100 µM; CC50 [20]: > 100 µM; EC50 [22]: 11 ± 6.4 µM; EC50 [23]: 24 ± 6.3 µM; EC50 [24]: 39 µM
CCCCc1ccc(CN2CCN(Cc3c(O)cc4c(c3O)-c3cc(ccc3O)C3NC(=O)C5NC(=O)C6NC(=O)C(Cc7ccc(c(Cl)c7)Oc7cc5cc(c7O)Oc5ccc(cc5Cl)C(O)C(NC3=O)C(=O)NC4C(=O)NCCCN(C)C)NC(=O)C(N)c3ccc(O)c(c3)Oc3cc(O)cc6c3)CC2)cc1 (stereo not drawn) [Compound 30] |  |  |  | 5 ± 1.4 | > 500 | 29 ± 7 | 108 ± 79 | 3 |  | 3.7 ± 1.25 | 11 ± 1.4 | 7 | 5.5 ± 0.7 | 2.8 ± 0.4 | 2.8 ± 0.4 | 4.5 ± 0.7 | EC50 [17]: 9.2 µM; CC50 [18]: ≥ 50 µM; CC50 [20]: > 100 µM; EC50 [26]: ≥ 5 µM; EC50 [22]: 7.5 ± 0.7 µM; EC50 [23]: 6 ± 1.4 µM; EC50 [24]: 33 µM
CNC(CC(C)C)C(=O)NC1C(=O)NC(CC(N)=O)C(=O)NC2C(=O)NC3C(=O)NC(C(=O)NC(C(=O)O)c4cc(O)c(CN5CCN(Cc6ccc(-c7ccccc7)cc6)CC5)c(O)c4-c4cc3ccc4O)C(O)c3ccc(cc3)Oc3cc2cc(c3O)Oc2ccc(cc2Cl)C1O (stereo not drawn) [Compound 6] | ≧20-200 μM | 4.2 | > 50 | 12 ± 3.5 | > 500 | 250 ± 39 | > 500 | 5.5 ± 0.7 | 11 ± 1.4 | 16 ± 5.7 | 50 | 20 | 40 | 5.5 ± 0.7 | 5.5 ± 0.7 | 22 ± 2.9 | activity against VZV [3]: pronounced activity
CCCCc1ccc(CNCC(=O)N2CCN(C(=O)C3NC(=O)C4NC(=O)C(NC(=O)C5NC(=O)C6NC(=O)C(Cc7ccc(c(Cl)c7)Oc7cc5cc(c7O)Oc5ccc(cc5Cl)C4O)NC(=O)C(N)c4ccc(O)c(c4)Oc4cc(O)cc6c4)c4ccc(O)c(c4)-c4c(O)cc(O)cc43)CC2)cc1 (stereo not drawn) [Compound 46] | 20 to 80 µM | 0.81 | > 50 | 7 ± 4.2 | > 100 | > 100 | > 100 | 4 | 17 ± 4.2 | 10 | 35 ± 7.1 | 9 ± 1.4 | 35 ± 7.1 | 4 | 4 | 6.5 ± 4.3 | EC50 [13]: 8 µM
